Reference: patent US10023539B2, “Aryl-cyanoguanidine compounds” (Bayer Pharma Aktiengesellschaft, priority 2014, dated 2018)

Assays:
[1] = target: T1, SMYD2 (Homo sapiens (Human), UniProt Q9NRG4); assay: In Cell Western (ICW) cell-based assay for detection of SMYD2 methylation activity; details: SMYD2 overexpressing KYSE-150 cells, 72 h treatment, p53K370me1 signal; read-out: IC50 [mol/l] (ICW assay)
Source text: For the detection of SMYD2 cellular methylation activity an In Cell Western (ICW) assay was established. This assay allows rapid processing of multiple samples for SMYD2 methylation derived immunofluorescence signals, with normalization to cell number via the use of the nucleic acid dye DRAQ5. […] To detect SMYD2-mediated methylation signals in cells, a customized antibody directed against mono-methylated lysine 370 on protein p53 (p53K370me1) was used.
For conducting the ICW assay 5000 SMYD2 overexpressing KYSE-150 cells/well were seeded in 96-well plates (SIGMA) and cultivated for 24 h. As a control for maximal inhibition of ectopic methylation activity, non-transfected KYSE-150 cells were used. Cells were grown in 49% RPMI 1640 with 49% Ham's F12 media supplemented with 2% heat inactivated fetal calf serum (FCS). […] After 5 washes with PBS, the fluorescence in each well was measured on an Odyssey (LI-COR) scanner at 800 nm (p53K370me1 signal; 764 nm excitation) and 700 nm (DRAQ5 signal; 683 nm excitation). Fluorescence intensity was quantified and normalized to background and DRAQ5 signals. IC50 values were calculated by fitting the normalized inhibition data to a 4-parameter logistic equation (Minimum, Maximum, IC50, Hill; Y=Max+(Min−Max)/(1+(X/IC50)Hill)) for each tested compound. […] Ci (maximal inhibition) was defined as the signal measured for non SMYD2 overexpressing KYSE150 cells.

[2] = target: T1, SMYD2; assay: Scintillation Proximity Assay (SPA) for detection of SMYD2 enzymatic inhibition; type: biochemical; details: methylation of biotinylated p53 Peptide, 3H-SAM, full length SMYD2; read-out: IC50 [mol/l] (SPA Assay)
Method: 1.1 Scintillation Proximity Assay (SPA) for Detection of SMYD2 Enzymatic Inhibition
The SMYD2 full length enzyme was produced in-house by expression (with an N-terminal 6×His tag) in E. coli and purification by affinity chromatography on a Ni-NTA Sepharose column followed by a size exclusion chromatography step on a Superdex 200 16/60 column (GE Healthcare).
To this end, 100-fold concentrated compound solutions (in DMSO) were previously prepared by serial dilution (1:3.4) of 2 mM stocks in a clear low volume 384-well source microtiter plate (Greiner Bio-One), from which 50 nl of compound solutions were transferred into a white low volume test microtiter plate from the same supplier. […] The samples were then incubated for 15 min at 22° C. to allow pre-equilibration of the putative enzyme-inhibitor complexes before the start of the methylation reaction, which was initiated by the addition of 2.5 μl 2-fold concentrated solution (in assay buffer) of titrated S-Adenosyl-L-Methionine (3H-SAM, Perkin Elmer, final concentration: 60 nM) and p53 Peptide substrate (final concentration: 1.0 μM). The resulting mixture (5 μl final volume) was shortly centrifuged (2 min., 1500 rpm) and incubated at 22° C. during 30 min. Thereupon the reaction was stopped by adding 3 μl of Streptavidin PS SPA imaging beads (Perkin Elmer, final concentration of 3.12 μg/μl) and “cold” SAM (AK Scientific, 25 μM final concentration) for non-specific binding reduction. Plates containing the stopped reaction were sealed with transparent adhesive foil (Perkin Elmer), centrifuged (2 min., 1500 rpm), and further incubated for—at least—1 h at RT (or overnight at 4° C.) in order to allow the SPA signals to develop. […] IC50 values were calculated by fitting the normalized inhibition data to a 4-parameter logistic equation using the “Screener” analysis software from Genedata.

T1 sequence (Q9NRG4 whole entry): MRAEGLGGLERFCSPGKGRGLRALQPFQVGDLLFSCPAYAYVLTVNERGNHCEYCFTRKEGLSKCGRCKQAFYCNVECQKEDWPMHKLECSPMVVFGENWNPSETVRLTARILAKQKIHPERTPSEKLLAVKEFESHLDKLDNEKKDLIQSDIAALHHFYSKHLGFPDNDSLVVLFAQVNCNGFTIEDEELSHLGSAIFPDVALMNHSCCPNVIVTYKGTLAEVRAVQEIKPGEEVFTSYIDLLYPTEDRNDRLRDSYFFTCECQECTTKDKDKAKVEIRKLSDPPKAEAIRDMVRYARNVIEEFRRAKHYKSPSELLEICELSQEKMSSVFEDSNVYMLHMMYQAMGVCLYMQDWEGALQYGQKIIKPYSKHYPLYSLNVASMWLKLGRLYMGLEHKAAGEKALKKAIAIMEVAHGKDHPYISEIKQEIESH

CCN(C(=O)CO)C1CN(/C(=N\C#N)Nc2ccc(Cl)c(OC(F)F)c2)N=C1c1ccc(Cl)c(Cl)c1 (racemic) [Example 11, Rac-N-[1-{N-[4-chloro-3-(difluoromethoxy)phenyl]-N′-cyanocarbamimidoyl}-3-(3,4-dichlorophenyl)-4,5-dihydro-1H-pyrazol-4-yl]-N-ethyl-2-hydroxyacetamide]
IC50 [1]: 0.376 µM | IC50 [2]: 0.144 µM

CCN(C(=O)CO)C1CN(/C(=N\C#N)Nc2cc(OC(F)(F)F)ccc2OC)N=C1c1ccc(Cl)c(Cl)c1 (racemic) [Example 26, Rac-N-[1-{N′-cyano-N-[2-methoxy-5-(trifluoromethoxy)phenyl]carbamimidoyl}-3-(3,4-dichlorophenyl)-4,5-dihydro-1H-pyrazol-4-yl]-N-ethyl-2-hydroxyacetamide]
IC50 [2]: 0.0306 µM
